Laboratory results from ChEMBL document CHEMBL1151449, “In vitro activity of DC-159a, a new broad-spectrum fluoroquinolone, compared with that of other agents against drug-susceptible and -resistant pneumococci” (2008).
≈ marks a conversion by molar mass, not a printed value.

Tests used:
Type in all cases: functional
[1] = test system: Streptococcus pneumoniae; assay: Antibacterial activity against penicillin-resistant and quinolone-susceptible Streptococcus pneumoniae HMC 228 expressing ermB by broth microdilution method
[2] = test system: Streptococcus pneumoniae; assay: Antibacterial activity against penicillin- and quinolone-susceptible Streptococcus pneumoniae HMC 5055 expressing mefA after 50 passages by broth microdilution method
[3] = test system: Streptococcus pneumoniae; assay: Antibacterial activity against quinolone-susceptible and penicillin-intermediate Streptococcus pneumoniae HMC 5048 expressing mefA after 50 passages by broth microdilution method
[4] = test system: Streptococcus pneumoniae; assay: Antibacterial activity against macrolide-, quinolone-susceptible and penicillin-intermediate Streptococcus pneumoniae HMC 99 after 50 passages by broth microdilution method
[5] = test system: Streptococcus pneumoniae; assay: Antibacterial activity against penicillin-, macrolide-susceptible and quinolone-resistant Streptococcus pneumoniae HMC 1074 harboring S81F mutation in quinolone-resistant determining regions of GyrA gene, S79F mutation in QRDR of ParC gene and I460V mutation in QRDR of ParE gene after 50 passages by broth microdilution method
[6] = test system: Streptococcus pneumoniae; assay: Antibacterial activity against macrolide-, quinolone-susceptible and penicillin-intermediate Streptococcus pneumoniae HMC 99 harboring S81Y and S79Y mutation in quinolone-resistant determining regions of GyrA and ParC genes respectively after 41 passages with moxifloxacin measured after 10 daily antibiotic-free subculturing by multi-step resistance selection technique
[7] = test system: Streptococcus pneumoniae; assay: Antibacterial activity against macrolide-, quinolone-susceptible and penicillin-intermediate Streptococcus pneumoniae HMC 100 harboring S81Y and S79Y mutation in quinolone-resistant determining regions of GyrA and ParC genes respectively after 42 passages with levofloxacin measured after 10 daily antibiotic-free subculturing by multi-step resistance selection technique
[8] = test system: Streptococcus pneumoniae; assay: Antibacterial activity against macrolide-, quinolone-susceptible and penicillin-intermediate Streptococcus pneumoniae HMC 100 harboring S81Y mutation in quinolone-resistant determining regions of GyrA gene after 22 passages with moxifloxacin measured after 10 daily antibiotic-free subculturing by multi-step resistance selection technique
[9] = test system: Streptococcus pneumoniae; assay: Antibacterial activity against penicillin-resistant and quinolone-susceptible Streptococcus pneumoniae HMC 3583 expressing mefA and harboring S81F mutation in quinolone-resistant determining regions of GyrA gene and I460V, D435N mutation in QRDR of ParE gene after 46 passages with gatifloxacin measured after 10 daily antibiotic-free subculturing by multi-step resistance selection technique
[10] = test system: Streptococcus pneumoniae; assay: Antibacterial activity against penicillin-susceptible Streptococcus pneumoniae ATCC 49619 by agar dilution method
[11] = test system: Streptococcus pneumoniae; assay: Antibacterial activity against penicillin-intermediate Streptococcus pneumoniae […] by agar dilution method
[12] = test system: Streptococcus pneumoniae; assay: Antibacterial activity against penicillin-susceptible, quinolone-resistant Streptococcus pneumoniae 1072 expressing ermB and harboring S81F mutation in quinolone-resistant determining regions of GyrA gene, S79Y mutation in QRDR of ParC gene and I460V mutation in QRDR of ParE gene by broth microdilution method
[13] = test system: Streptococcus pneumoniae; assay: Antibacterial activity against macrolide-, quinolone-susceptible and penicillin-intermediate Streptococcus pneumoniae HMC 99 by broth microdilution method
[14] = test system: Streptococcus pneumoniae; assay: Antibacterial activity against quinolone-susceptible and penicillin-intermediate Streptococcus pneumoniae HMC 5048 expressing mefA by broth microdilution method
[15] = test system: Streptococcus pneumoniae; assay: Antibacterial activity against penicillin-resistant and quinolone-susceptible Streptococcus pneumoniae HMC 228 expressing ermB and harboring S81F mutation in quinolone-resistant determining regions of GyrA gene, S79Y mutation in QRDR of ParC gene and I460V mutation in QRDR of ParE gene after 38 passages with gatifloxacin measured after 10 daily antibiotic-free subculturing by multi-step resistance selection technique
[16] = test system: Streptococcus pneumoniae; assay: Antibacterial activity against Streptococcus pneumoniae HMC 1066 harboring S81F mutation in quinolone-resistant determining regions of GyrA gene, S79F mutation in QRDR of ParC gene and I460V mutation in QRDR of ParE gene by agar dilution method
[17] = test system: Streptococcus pneumoniae; assay: Antibacterial activity against Streptococcus pneumoniae HMC 1073 harboring S81F mutation in quinolone-resistant determining regions of GyrA gene, and I460V mutation in QRDR of ParE gene by agar dilution method
[18] = test system: Streptococcus pneumoniae; assay: Antibacterial activity against Streptococcus pneumoniae HMC 1146 harboring S81F mutation in quinolone-resistant determining regions of GyrA gene, and D435N mutation in QRDR of ParE gene by agar dilution method
[19] = test system: Streptococcus pneumoniae; assay: Antibacterial activity against Streptococcus pneumoniae HMC 1147 harboring S81F mutation in quinolone-resistant determining regions of GyrA gene, S79F mutation in QRDR of ParC gene and I460V mutation in QRDR of ParE gene showing efflux to gemifloxacin by agar dilution method
[20] = test system: Streptococcus pneumoniae; assay: Antibacterial activity against Streptococcus pneumoniae HMC 1150 harboring S81C mutation in quinolone-resistant determining regions of GyrA gene, S79F mutation in QRDR of ParC gene and I460V mutation in QRDR of ParE gene by agar dilution method
[21] = test system: Streptococcus pneumoniae; assay: Antibacterial activity against Streptococcus pneumoniae HMC 2538 harboring S81Y mutation in quinolone-resistant determining regions of GyrA gene, S79F, K137N mutation in QRDR of ParC gene and I460V mutation in QRDR of ParE gene showing efflux to ciprofloxacin, levofloxacin, gatifloxacin by agar dilution method
[22] = test system: Streptococcus pneumoniae; assay: Antibacterial activity against Streptococcus pneumoniae HMC 1059 harboring S81F mutation in quinolone-resistant determining regions of GyrA gene, S79F, K137N mutation in QRDR of ParC gene and I460N mutation in QRDR of ParE gene by agar dilution method
[23] = test system: Streptococcus pneumoniae; assay: Antibacterial activity against Streptococcus pneumoniae HMC 1072 harboring S81F mutation in quinolone-resistant determining regions of GyrA gene, S79Y mutation in QRDR of ParC gene and I460V mutation in QRDR of ParE gene by agar dilution method
[24] = test system: Streptococcus pneumoniae; assay: Antibacterial activity against Streptococcus pneumoniae HMC 1077 harboring S81Y and S79F mutation in quinolone-resistant determining regions of GyrA and ParC genes respectively by agar dilution method
[25] = test system: Streptococcus pneumoniae; assay: Antibacterial activity against Streptococcus pneumoniae HMC 1149 harboring S81F and S79Y mutation in quinolone-resistant determining regions of GyrA and ParC genes respectively showing efflux to ciprofloxacin, gemifloxacin by agar dilution method
[26] = test system: Streptococcus pneumoniae; assay: Antibacterial activity against Streptococcus pneumoniae HMC 1139 harboring S81F mutation in quinolone-resistant determining regions of GyrA gene, S79F, K137N mutation in QRDR of ParC gene and I460V mutation in QRDR of ParE gene by agar dilution method
[27] = test system: Streptococcus pneumoniae; assay: Antibacterial activity against Streptococcus pneumoniae HMC 1541 harboring S81Y mutation in quinolone-resistant determining regions of GyrA gene, S79F, K137N mutation in QRDR of ParC gene and I460V mutation in QRDR of ParE gene by agar dilution method
[28] = test system: Streptococcus pneumoniae; assay: Antibacterial activity against Streptococcus pneumoniae HMC 1068 harboring E85K mutation in quinolone-resistant determining regions of GyrA gene, S79Y, K137N mutation in QRDR of ParC gene and I460V mutation in QRDR of ParE gene showing efflux to ciprofloxacin, levofloxacin by agar dilution method

SMILES | MIC [1] [µg/mL] | MIC [2] [µg/mL] | MIC [3] [µg/mL] | MIC [4] [µg/mL] | MIC [5] [µg/mL] | MIC [6] [µg/mL] | MIC [7] [µg/mL] | MIC [8] [µg/mL] | MIC [9] [µg/mL] | MIC50 [10] [µg/mL] | MIC90 [10] [µg/mL] | MIC50 [11] [µg/mL] | MIC90 [11] [µg/mL] | MIC [12] [µg/mL] | MIC [13] [µg/mL] | MIC [14] [µg/mL] | MIC [15] [µg/mL] | MIC [16] [µg/mL] | MIC [17] [µg/mL] | MIC [18] [µg/mL] | also measured
CC[C@H]1OC(=O)[C@H](C)[C@@H](O[C@H]2C[C@@](C)(OC)[C@@H](O)[C@H](C)O2)[C@H](C)[C@@H](O[C@@H]2O[C@H](C)C[C@H](N(C)C)[C@H]2O)[C@](C)(O)C[C@@H](C)CN(C)[C@H](C)[C@@H](O)[C@]1(C)O [AZITHROMYCIN] | > 64 | 8 (≈ 10.7 µM) | 8 (≈ 10.7 µM) | 0.06 (≈ 0.0801 µM) | 0.03 (≈ 0.0401 µM) | 0.016 (≈ 0.0214 µM) | 0.03 (≈ 0.0401 µM) | 0.03 (≈ 0.0401 µM) | 0.25 (≈ 0.334 µM) | 0.12 (≈ 0.16 µM) | > 64 | 0.12 (≈ 0.16 µM) | > 64 | > 64 | 0.016 (≈ 0.0214 µM) | 4 (≈ 5.34 µM) | 2 (≈ 2.67 µM) |  |  |  | 
CO/N=C1\CN(c2nc3c(cc2F)c(=O)c(C(=O)O)cn3C2CC2)CC1CN (centres undefined) [GEMIFLOXACIN] | 0.06 (≈ 0.154 µM) | 0.06 (≈ 0.154 µM) | 0.125 (≈ 0.321 µM) | 0.125 (≈ 0.321 µM) |  | 1 (≈ 2.57 µM) | 0.5 (≈ 1.28 µM) | 0.25 (≈ 0.642 µM) | 8 (≈ 20.5 µM) | 0.03 (≈ 0.077 µM) | 0.12 (≈ 0.308 µM) | 0.03 (≈ 0.077 µM) | 0.06 (≈ 0.154 µM) | 0.5 (≈ 1.28 µM) | 0.06 (≈ 0.154 µM) | 0.03 (≈ 0.077 µM) | > 64 | 0.25 (≈ 0.642 µM) | 0.125 (≈ 0.321 µM) | 0.5 (≈ 1.28 µM) | MIC [19]: 1 µg/mL (≈ 2.57 µM); MIC [20]: 0.25 µg/mL (≈ 0.642 µM); MIC [21]: 0.25 µg/mL (≈ 0.642 µM); MIC [22]: 0.5 µg/mL (≈ 1.28 µM); MIC [23]: 0.5 µg/mL (≈ 1.28 µM); MIC [24]: 0.25 µg/mL (≈ 0.642 µM); MIC [25]: 0.25 µg/mL (≈ 0.642 µM); MIC [26]: 0.25 µg/mL (≈ 0.642 µM); MIC [27]: 0.25 µg/mL (≈ 0.642 µM); MIC [28]: 0.5 µg/mL (≈ 1.28 µM)
COc1c(N2CC3(CC3)[C@](C)(N)C2)c(F)cc2c(=O)c(C(=O)O)cn([C@@H]3C[C@@H]3F)c12.O | 0.12 | 0.125 | 0.125 | 0.125 | 1 | 1 | 1 | 0.5 | 1 | 0.12 | 0.25 | 0.12 | 0.12 | 1 | 0.12 | 0.12 | 1 | 0.5 | 1 | 1 | MIC [19]: 1 µg/mL; MIC [20]: 0.5 µg/mL; MIC [21]: 1 µg/mL; MIC [22]: 1 µg/mL; MIC [23]: 1 µg/mL; MIC [24]: 1 µg/mL; MIC [25]: 0.25 µg/mL; MIC [26]: 1 µg/mL; MIC [27]: 0.5 µg/mL; MIC [28]: 1 µg/mL
COc1c(N2C[C@@H]3CCCN[C@@H]3C2)c(F)cc2c(=O)c(C(=O)O)cn(C3CC3)c12 [MOXIFLOXACIN] | 0.12 (≈ 0.299 µM) | 0.125 (≈ 0.311 µM) | 0.125 (≈ 0.311 µM) |  | 8 (≈ 19.9 µM) | 4 (≈ 9.96 µM) | 4 (≈ 9.96 µM) | 1 (≈ 2.49 µM) | 4 (≈ 9.96 µM) |  |  |  |  | 4 (≈ 9.96 µM) |  |  | 4 (≈ 9.96 µM) | 2 (≈ 4.98 µM) | 2 (≈ 4.98 µM) | 2 (≈ 4.98 µM) | MIC [19]: 4 µg/mL (≈ 9.96 µM); MIC [20]: 1 µg/mL (≈ 2.49 µM); MIC [21]: 2 µg/mL (≈ 4.98 µM); MIC [22]: 4 µg/mL (≈ 9.96 µM); MIC [23]: 4 µg/mL (≈ 9.96 µM); MIC [24]: 4 µg/mL (≈ 9.96 µM); MIC [25]: 0.25 µg/mL (≈ 0.623 µM); MIC [26]: 4 µg/mL (≈ 9.96 µM); MIC [27]: 2 µg/mL (≈ 4.98 µM); MIC [28]: 4 µg/mL (≈ 9.96 µM)
COc1c(N2CCNC(C)C2)c(F)cc2c(=O)c(C(=O)O)cn(C3CC3)c12 (centres undefined) [GATIFLOXACIN] | 0.5 (≈ 1.33 µM) | 0.5 (≈ 1.33 µM) | 0.5 (≈ 1.33 µM) | 0.5 (≈ 1.33 µM) | 8 (≈ 21.3 µM) | 16 (≈ 42.6 µM) | 8 (≈ 21.3 µM) | 4 (≈ 10.7 µM) | 8 (≈ 21.3 µM) | 0.5 (≈ 1.33 µM) | 1 (≈ 2.66 µM) | 0.5 (≈ 1.33 µM) | 0.5 (≈ 1.33 µM) | 8 (≈ 21.3 µM) | 0.12 (≈ 0.32 µM) | 0.25 (≈ 0.666 µM) | 4 (≈ 10.7 µM) | 4 (≈ 10.7 µM) | 4 (≈ 10.7 µM) | 4 (≈ 10.7 µM) | MIC [19]: 8 µg/mL (≈ 21.3 µM); MIC [20]: 4 µg/mL (≈ 10.7 µM); MIC [21]: 8 µg/mL (≈ 21.3 µM); MIC [22]: 8 µg/mL (≈ 21.3 µM); MIC [23]: 8 µg/mL (≈ 21.3 µM); MIC [24]: 8 µg/mL (≈ 21.3 µM); MIC [25]: 1 µg/mL (≈ 2.66 µM); MIC [26]: 8 µg/mL (≈ 21.3 µM); MIC [27]: 4 µg/mL (≈ 10.7 µM); MIC [28]: 8 µg/mL (≈ 21.3 µM)
